Data published in ChEMBL document CHEMBL1201862, “PubChem BioAssay data set” (2004).
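These data come from cells grown in 96-well plates and exposed to compound for 48 hours at five concentrations. GI50 = concentration required for 50% inhibition of growth.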 Active and inactive are the calls of the source. No stated cut-off is given here; in the data, active = GI50 up to about 1.1 µM and inactive = higher.

Assays:
Experiment in all cases: NCI anticancer screen, dose series, 48 h
COLO 205 = tested on: COLO 205
SW-620 = tested on: SW-620
MDA-MB-231 = tested on: MDA-MB-231
NCI/ADR-RES = tested on: NCI/ADR-RES
T47D = tested on: T47D
M14 = tested on: M14
RXF 393 = tested on: RXF 393
PC-3 = tested on: PC-3
HL-60 = tested on: HL-60
786-0 = tested on: 786-0
Malme-3M = tested on: Malme-3M
HOP-92 = tested on: HOP-92
U-251 = tested on: U-251
OVCAR-3 = tested on: OVCAR-3
HCT-15 = tested on: HCT-15
HOP-62 = tested on: HOP-62
MOLT-4 = tested on: MOLT-4
SNB-19 = tested on: SNB-19
SK-MEL-2 = tested on: SK-MEL-2
SK-MEL-5 = tested on: SK-MEL-5

Row | SMILES | GI50 (COLO 205) | GI50 (SW-620) | GI50 (MDA-MB-231) | GI50 (NCI/ADR-RES) | GI50 (T47D) | GI50 (M14) | GI50 (RXF 393) | GI50 (PC-3) | GI50 (HL-60) | GI50 (786-0) | GI50 (Malme-3M) | GI50 (HOP-92) | GI50 (U-251) | GI50 (OVCAR-3) | GI50 (HCT-15) | GI50 (HOP-62) | GI50 (MOLT-4) | GI50 (SNB-19) | GI50 (SK-MEL-2) | GI50 (SK-MEL-5)
1 | CCOC(=O)c1c(SC(=O)c2ccc(C(C)(C)C)cc2)n(-c2ccccc2)c(=S)n(-c2ccccc2)c1=O | > 100 µM (inactive) | > 100 µM (inactive) | > 100 µM (inactive) | > 100 µM (inactive) | > 100 µM (inactive) | > 100 µM (inactive) | > 100 µM (inactive) | > 100 µM (inactive) | > 100 µM (inactive) | > 100 µM (inactive) | > 100 µM (inactive) | > 100 µM (inactive) | > 100 µM (inactive) | > 100 µM (inactive) | > 100 µM | > 100 µM (inactive) | 59.4 µM (inactive) | > 100 µM (inactive) |  | 
2 | O=c1c(C(c2cc(OCc3ccccc3)cc(OCc3ccccc3)c2)c2c(O)oc3ccccc3c2=O)c(O)oc2ccccc12 | 8.45 µM (inactive) | 4.58 µM (inactive) | 4.57 µM (inactive) | 17.6 µM (inactive) | 8.55 µM (inactive) | 7.13 µM (inactive) | 22.4 µM (inactive) | 4 µM (inactive) | 2.51 µM (inactive) | 8.63 µM (inactive) |  | 2.69 µM (inactive) | 4.78 µM (inactive) | 13.4 µM (inactive) | 3.17 µM | 10.3 µM (inactive) | 3.91 µM (inactive) | 3.74 µM (inactive) | 3.86 µM (inactive) | 6.59 µM (inactive)
3 | C#CCCOC(=O)CC1=C(C)/C(=C/c2ccc([S+](C)[O-])cc2)c2ccc(F)cc21 (stereo unspecified) | 15.2 µM (inactive) | 14.3 µM (inactive) | 8.49 µM (inactive) | 13.3 µM (inactive) | 20.1 µM (inactive) | 16.2 µM (inactive) | 21.4 µM (inactive) | 11.3 µM (inactive) | 5.79 µM (inactive) | 19.8 µM (inactive) |  | 12.6 µM (inactive) | 15 µM (inactive) | 15.4 µM (inactive) | 12.9 µM | 27.2 µM (inactive) | 17.5 µM (inactive) | 13.6 µM (inactive) | 15.7 µM (inactive) | 12.3 µM (inactive)
4 | O=C1C=C/C(=N/c2ccccc2)c2ccccc21 | 7.03 µM (inactive) | 7.03 µM (inactive) | 1.9 µM (inactive) | 15.1 µM (inactive) | 16.2 µM (inactive) | 6.21 µM (inactive) | 10.8 µM (inactive) | 10.5 µM (inactive) | 4.89 µM (inactive) | 12.3 µM (inactive) |  | 14.9 µM (inactive) | 7.82 µM (inactive) | 1.89 µM (inactive) | 9.42 µM | 11.2 µM (inactive) | 5.41 µM (inactive) | 21.8 µM (inactive) | 2.19 µM (inactive) | 1.31 µM (inactive)
5 | CCn1c2nc(=O)n(CCCCCCCCSC(c3ccccc3)(c3ccccc3)c3ccccc3)c(=O)c-2nc2ccccc21 |  | 3.41 µM (inactive) | 45.4 µM (inactive) | > 100 µM (inactive) | 8.05 µM (inactive) | 8.61 µM (inactive) | 11.3 µM (inactive) | 4.9 µM (inactive) | 0.181 µM (active) | 14.6 µM (inactive) |  | 15.5 µM (inactive) | 19 µM (inactive) | 6.7 µM (inactive) | 8.38 µM | 27.5 µM (inactive) | 2.9 µM (inactive) |  | 8.41 µM (inactive) | 3.44 µM (inactive)
6 | CSc1nc(SC)c2c(CN=[N+]=[N-])c(Br)n(Cc3ccccc3)c2n1 | > 100 µM (inactive) | > 100 µM (inactive) | 52.7 µM (inactive) | > 100 µM (inactive) | 11.7 µM (inactive) | > 100 µM (inactive) |  | > 100 µM (inactive) | 62.1 µM (inactive) | > 100 µM (inactive) | > 100 µM (inactive) | 15 µM (inactive) | 71.9 µM (inactive) | > 100 µM (inactive) | > 100 µM | 92.3 µM (inactive) | > 100 µM (inactive) | > 100 µM (inactive) | > 100 µM (inactive) | > 100 µM (inactive)
